Assay results reported in publication PMC5473888 (Scientific Reports, 2017).
pIC50: −log10 of the molar value.

Tests used:
Y470F-hDAT = molecular target: T1, Y470F-hDAT (Homo sapiens, UniProt Q01959, Y470F); experiment: Competitive inhibition [3H]DA uptake assay in transfected PC12 cells; format: cell-based; details: SRI-20041 12.8 µM
T1 construct: synthetic cDNA encoding hDAT subcloned into pcDNA3.1 +; expressed in transfected cells; host or cells: PC12 cells (ATCC CRL-1721), transient, Lipofectamine 2000, pcDNA3.1+
T1 sequence (Q01959 whole entry Y470F): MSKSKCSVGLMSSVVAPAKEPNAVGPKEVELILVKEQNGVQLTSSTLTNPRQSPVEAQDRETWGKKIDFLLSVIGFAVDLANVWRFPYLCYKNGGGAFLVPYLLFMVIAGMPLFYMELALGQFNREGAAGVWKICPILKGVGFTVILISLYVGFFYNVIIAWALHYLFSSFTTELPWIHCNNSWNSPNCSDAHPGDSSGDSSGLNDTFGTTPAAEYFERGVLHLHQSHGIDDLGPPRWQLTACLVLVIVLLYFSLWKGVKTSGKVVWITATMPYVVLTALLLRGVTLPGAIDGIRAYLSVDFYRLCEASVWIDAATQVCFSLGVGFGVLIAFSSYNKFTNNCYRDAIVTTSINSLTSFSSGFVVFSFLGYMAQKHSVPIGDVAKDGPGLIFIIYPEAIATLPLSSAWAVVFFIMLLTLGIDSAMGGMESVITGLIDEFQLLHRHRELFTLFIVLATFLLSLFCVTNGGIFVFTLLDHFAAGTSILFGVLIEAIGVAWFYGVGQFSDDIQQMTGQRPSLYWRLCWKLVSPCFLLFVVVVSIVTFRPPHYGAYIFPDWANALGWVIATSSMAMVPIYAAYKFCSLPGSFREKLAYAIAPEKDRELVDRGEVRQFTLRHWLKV
Text: (§1) Results are presented as mean ± SEM, and n represents the number of independent experiments for each experiment group.

WT hDAT [1] = molecular target: T2, WT hDAT (Homo sapiens, UniProt Q01959); experiment: as above; format: cell-based; design: synthetic cDNA encoding hDAT subcloned into pcDNA3.1 +; expressed in transfected cells; host or cells: PC12 cells (ATCC CRL-1721), transient, Lipofectamine 2000, pcDNA3.1+; details: SRI-20041 12.8 µM
T2 sequence (Q01959 whole entry): as the sequence (Q01959 whole entry Y470F) above, with F470Y counted along it
Text: as §1

[2] = test system: DA uptake in rat synaptosomes; design: method as in PMID 25788711; details: read-out: Potency for inhibition of DA uptake; cited from earlier work
WT hDAT [3] = molecular target: T2, WT hDAT; experiment: Tat-induced inhibition of specific [3H]WIN35,428 binding in CHO cells transfected with WT hDAT; design: synthetic cDNA encoding hDAT subcloned into pcDNA3.1 +; expressed in transfected cells; host or cells: CHO cells (ATCC CRL-61), transient, Lipofectamine 2000, pcDNA3.1+
Protocol: CHO cells transfected with WT hDAT were incubated with [^3H]WIN 35,428 (final concentration, 5 nM) with or without recombinant Tat1–86 (rTat1–86) (40 nM, final concentration) on ice for 2 h. […] Data for rTat1–86 and SRI-30827 + rTat1–86 are expressed as the percentage of their respective controls in the absence of rTat1–86 (15675 ± 2982 DPM) and SRI-30827 (14041 ± 3212 DPM) n = 5. *p < 0.05 compared with control value.
PC12 cells were maintained in the incubator (37 °C, 5% CO2) with DMEM medium supplemented with horse serum (15%) and bovine calf serum (2.5%), glutamine (2 mM), and penicillin-streptomycin (100 U/ml). Chinese hamster ovary cells (CHO cells, ATCC, CRL-61) were maintained in F12 medium with 10% fetal bovine serum and antibiotics (100 U/mL penicillin and 100 µg/mL streptomycin). For hDATs transfection, cells were seeded into poly-D-lysine-coated 24 well plates at a density of 1 × 10^5 cells/well. After 24 h, cells were transfected with WT or mutant DAT plasmids using Lipofectamine 2000 (Life Tech, Carlsbad, CA) based on the manufacturer’s instruction. Cells were used for the experiments after 24 h of transfection.

Compound | Increase of cocaine IC50 of [3H]DA uptake (Y470F-hDAT) | Increase of cocaine IC50 of [3H]DA uptake (WT hDAT [1]) | pIC50 [2] | Effect on the specific [3H]WIN35,428 binding (WT hDAT [3]; SRI-30827 50 nM alone) | Specific [3H]WIN35,428 binding (WT hDAT [3]; SRI-30827 50 nM in the absence of rTat1–86, CHO cells, n = 5) [DPM]
c1ccc(-c2nc(NCCC(c3ccccc3)c3ccccc3)c3ccccc3n2)cc1 [SRI-20041] | ~ 40% | ~ 35% | – | – | –
Cc1cc2nccn2cc1-c1nc(NCC(c2ccccc2)c2ccccc2)c2ccccc2n1 [SRI-30827] | – | – | 9.30 | did not alter | 14041 ± 3212
